Laboratory results: article PMC8040053 (ACS Medicinal Chemistry Letters, 2021)

Tests used:
HDAC3 [1] = target: T1, HDAC3 (Homo sapiens, UniProt O15379); experiment: HDAC3 progress curve analysis / jump dilution; type: biochemical; details: HDAC3, linear progress curves
HDAC3 [2] = target: T1, HDAC3; experiment: HDAC3 inhibition assay; type: biochemical; details: for HDAC3 LBE: HDAC3-derived ligand binding efficiency
[3] = Lead profiling panel of 115 biochemical and binding assays at Eurofins Panlabs; details: 115-assay panel

T1 sequence (O15379 whole entry): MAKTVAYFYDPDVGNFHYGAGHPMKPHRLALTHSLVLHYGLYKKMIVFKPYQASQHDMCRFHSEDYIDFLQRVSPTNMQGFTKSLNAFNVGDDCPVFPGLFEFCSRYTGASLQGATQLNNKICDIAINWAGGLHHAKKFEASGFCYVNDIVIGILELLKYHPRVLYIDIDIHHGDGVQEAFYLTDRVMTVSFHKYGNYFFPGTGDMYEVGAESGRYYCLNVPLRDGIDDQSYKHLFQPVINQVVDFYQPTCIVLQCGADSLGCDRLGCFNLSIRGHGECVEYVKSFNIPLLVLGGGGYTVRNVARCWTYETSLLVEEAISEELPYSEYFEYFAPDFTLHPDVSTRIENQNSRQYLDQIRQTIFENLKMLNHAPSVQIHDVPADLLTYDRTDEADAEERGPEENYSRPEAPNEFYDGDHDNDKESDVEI
T1 sequence (Q9Y618 1-899 partner limits assumed): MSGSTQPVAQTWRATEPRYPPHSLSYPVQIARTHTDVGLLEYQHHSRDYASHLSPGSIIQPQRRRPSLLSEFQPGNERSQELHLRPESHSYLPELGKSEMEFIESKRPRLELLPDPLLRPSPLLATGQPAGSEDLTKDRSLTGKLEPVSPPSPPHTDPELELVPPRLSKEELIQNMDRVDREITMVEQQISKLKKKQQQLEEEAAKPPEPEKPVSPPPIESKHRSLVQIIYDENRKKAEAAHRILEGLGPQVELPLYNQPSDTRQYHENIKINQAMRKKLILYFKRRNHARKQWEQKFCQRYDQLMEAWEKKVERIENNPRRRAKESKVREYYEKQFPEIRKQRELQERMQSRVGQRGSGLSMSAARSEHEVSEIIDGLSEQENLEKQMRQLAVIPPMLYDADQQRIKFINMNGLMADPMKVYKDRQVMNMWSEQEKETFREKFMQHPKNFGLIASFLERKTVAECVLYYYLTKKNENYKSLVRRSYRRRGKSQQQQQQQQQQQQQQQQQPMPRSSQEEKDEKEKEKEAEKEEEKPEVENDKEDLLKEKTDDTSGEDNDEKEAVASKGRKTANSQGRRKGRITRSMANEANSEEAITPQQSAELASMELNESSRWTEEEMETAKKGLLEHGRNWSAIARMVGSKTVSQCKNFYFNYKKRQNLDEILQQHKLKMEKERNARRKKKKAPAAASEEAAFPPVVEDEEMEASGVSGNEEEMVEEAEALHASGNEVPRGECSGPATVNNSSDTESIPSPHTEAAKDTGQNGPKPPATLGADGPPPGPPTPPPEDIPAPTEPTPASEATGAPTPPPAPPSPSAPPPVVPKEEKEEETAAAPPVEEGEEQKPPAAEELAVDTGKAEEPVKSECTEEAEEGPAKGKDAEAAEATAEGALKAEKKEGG

SMILES | inhibition kinetics mechanism (HDAC3 [1]) | HDAC3 LBE (HDAC3 [2]) | selectivity for HDAC inhibition over off-target hits [3] | IC50 (HDAC3 [2]; read-out: HDAC3 IC50, Table 3) [nM]
CCCC[C@H](NC(=O)C1CN(C)C1)c1ncc(-c2cc3ccccc3nc2OC)[nH]1 [Compound 12] | fast-on/fast-off kinetics |  |  | 
CCCC[C@H](NC(=O)[C@H](C)c1c(C)[nH]c2ccc(O)cc12)c1ncc(-c2cc3ccccc3nc2OC)[nH]1 [Compound 19] | fast-on/fast-off kinetics | 0.25 | 10–1000 fold | 
CCCC[C@H](NC(=O)[C@H](C)c1c(C)[nH]c2ccc(OC)cc12)c1ncc(-c2cc3ccccc3nc2OC)[nH]1 [Compound 20] |  | 0.25 |  | 
CCCC[C@H](NC(=O)[C@H](CN)c1c(C)[nH]c2ccc(OC)cc12)c1ncc(-c2cc3ccccc3nc2OC)[nH]1 [Compound 21] |  |  |  | 18
